Data on twelve molecules can be found in ChEMBL document CHEMBL1150386 (J Med Chem, 2008).

The target in assay [1] is T1, Acetylcholinesterase (Rattus norvegicus, UniProt P37136).
T1 sequence (P37136 whole entry): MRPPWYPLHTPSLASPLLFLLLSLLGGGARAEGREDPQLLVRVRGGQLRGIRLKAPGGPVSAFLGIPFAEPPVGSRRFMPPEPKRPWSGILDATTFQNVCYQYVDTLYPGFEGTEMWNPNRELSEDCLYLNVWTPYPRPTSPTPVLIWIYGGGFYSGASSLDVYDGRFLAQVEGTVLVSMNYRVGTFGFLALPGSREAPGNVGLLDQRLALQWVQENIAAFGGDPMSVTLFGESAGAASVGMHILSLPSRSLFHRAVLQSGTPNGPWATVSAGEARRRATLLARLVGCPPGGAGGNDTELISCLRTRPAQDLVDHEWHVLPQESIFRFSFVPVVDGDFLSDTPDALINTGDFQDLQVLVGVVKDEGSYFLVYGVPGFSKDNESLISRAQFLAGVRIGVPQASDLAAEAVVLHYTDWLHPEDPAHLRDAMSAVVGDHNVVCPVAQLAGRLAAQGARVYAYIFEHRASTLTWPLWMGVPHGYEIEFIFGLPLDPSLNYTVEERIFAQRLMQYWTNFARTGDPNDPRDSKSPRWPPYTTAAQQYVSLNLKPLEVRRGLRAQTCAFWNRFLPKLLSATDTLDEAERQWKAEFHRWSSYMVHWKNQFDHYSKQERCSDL

Assay [2] deals with T2, Acetylcholinesterase (Mus musculus, UniProt P21836).
T2 sequence (P21836 whole entry): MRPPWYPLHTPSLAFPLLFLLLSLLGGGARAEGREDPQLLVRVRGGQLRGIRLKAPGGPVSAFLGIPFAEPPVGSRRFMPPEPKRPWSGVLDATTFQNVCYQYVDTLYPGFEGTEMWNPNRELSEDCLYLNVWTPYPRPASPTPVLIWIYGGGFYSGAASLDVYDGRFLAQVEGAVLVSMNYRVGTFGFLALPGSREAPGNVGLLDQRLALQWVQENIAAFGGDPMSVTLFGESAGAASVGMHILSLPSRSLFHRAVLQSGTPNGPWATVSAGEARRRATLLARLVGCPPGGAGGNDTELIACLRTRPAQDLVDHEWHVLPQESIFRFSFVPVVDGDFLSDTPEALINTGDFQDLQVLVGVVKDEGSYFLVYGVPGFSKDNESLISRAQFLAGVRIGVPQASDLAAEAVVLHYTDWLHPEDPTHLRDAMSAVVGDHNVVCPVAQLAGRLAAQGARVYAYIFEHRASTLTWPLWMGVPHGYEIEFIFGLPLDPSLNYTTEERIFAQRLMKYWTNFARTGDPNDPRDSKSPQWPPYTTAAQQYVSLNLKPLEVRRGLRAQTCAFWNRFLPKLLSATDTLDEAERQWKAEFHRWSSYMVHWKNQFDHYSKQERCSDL
Description: Binding affinity to mouse AChE

Assay [3] deals with T2, Acetylcholinesterase. This is another data set of the same source.
Description: Binding affinity to mouse AChE by equilibrium binding assay
A further assay has as its target Butyrylcholinesterase (Rattus norvegicus, UniProt Q9JKC1).
The nature of assay [4]: Ratio of Ki for fetal bovine serum AChE to Ki for horse BuChE.
Assay [5] deals with Cholinesterase (Equus caballus, UniProt P81908). Put plainly: Inhibition of horse BuChE.
Chain of Cholinesterase (Equus caballus, UniProt P81908) (P81908 whole entry): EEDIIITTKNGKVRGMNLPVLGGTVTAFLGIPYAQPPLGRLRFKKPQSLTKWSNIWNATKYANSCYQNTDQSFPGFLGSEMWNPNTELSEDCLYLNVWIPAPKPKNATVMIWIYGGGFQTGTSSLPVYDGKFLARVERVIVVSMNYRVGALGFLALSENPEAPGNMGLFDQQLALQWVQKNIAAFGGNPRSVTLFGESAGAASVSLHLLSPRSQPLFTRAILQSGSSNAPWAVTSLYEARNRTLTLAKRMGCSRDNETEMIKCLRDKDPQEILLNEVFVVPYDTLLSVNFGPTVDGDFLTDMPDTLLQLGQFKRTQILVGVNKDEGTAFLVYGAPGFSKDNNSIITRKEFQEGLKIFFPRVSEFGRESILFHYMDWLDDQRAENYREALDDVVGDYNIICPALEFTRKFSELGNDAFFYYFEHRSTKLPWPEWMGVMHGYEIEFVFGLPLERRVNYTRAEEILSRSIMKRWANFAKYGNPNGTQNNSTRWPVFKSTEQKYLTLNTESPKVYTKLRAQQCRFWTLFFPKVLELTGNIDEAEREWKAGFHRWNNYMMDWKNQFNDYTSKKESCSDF
Assay [6] addresses T3, Acetylcholinesterase (Bos taurus, UniProt P23795).
T3 sequence (P23795 whole entry): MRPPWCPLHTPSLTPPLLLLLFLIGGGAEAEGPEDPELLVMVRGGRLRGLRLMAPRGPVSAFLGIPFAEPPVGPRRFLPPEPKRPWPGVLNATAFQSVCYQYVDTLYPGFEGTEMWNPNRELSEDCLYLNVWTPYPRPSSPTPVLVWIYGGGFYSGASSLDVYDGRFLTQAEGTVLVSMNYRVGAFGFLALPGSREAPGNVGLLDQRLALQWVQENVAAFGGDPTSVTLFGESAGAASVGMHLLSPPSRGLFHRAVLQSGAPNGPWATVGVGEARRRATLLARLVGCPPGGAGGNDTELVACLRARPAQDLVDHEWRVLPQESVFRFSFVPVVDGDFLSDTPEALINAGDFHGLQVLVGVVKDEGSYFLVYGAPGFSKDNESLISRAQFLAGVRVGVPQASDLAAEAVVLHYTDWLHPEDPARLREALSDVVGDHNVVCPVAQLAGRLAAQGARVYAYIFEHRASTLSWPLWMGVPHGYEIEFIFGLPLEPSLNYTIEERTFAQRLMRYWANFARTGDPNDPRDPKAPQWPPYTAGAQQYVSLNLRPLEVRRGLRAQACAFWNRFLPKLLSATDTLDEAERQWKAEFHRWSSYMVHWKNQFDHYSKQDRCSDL
Put plainly: Inhibition of bovine AChE.

The target in assay [7] is T4, Acetylcholinesterase (Torpedo californica, UniProt P04058).
T4 sequence (P04058 whole entry): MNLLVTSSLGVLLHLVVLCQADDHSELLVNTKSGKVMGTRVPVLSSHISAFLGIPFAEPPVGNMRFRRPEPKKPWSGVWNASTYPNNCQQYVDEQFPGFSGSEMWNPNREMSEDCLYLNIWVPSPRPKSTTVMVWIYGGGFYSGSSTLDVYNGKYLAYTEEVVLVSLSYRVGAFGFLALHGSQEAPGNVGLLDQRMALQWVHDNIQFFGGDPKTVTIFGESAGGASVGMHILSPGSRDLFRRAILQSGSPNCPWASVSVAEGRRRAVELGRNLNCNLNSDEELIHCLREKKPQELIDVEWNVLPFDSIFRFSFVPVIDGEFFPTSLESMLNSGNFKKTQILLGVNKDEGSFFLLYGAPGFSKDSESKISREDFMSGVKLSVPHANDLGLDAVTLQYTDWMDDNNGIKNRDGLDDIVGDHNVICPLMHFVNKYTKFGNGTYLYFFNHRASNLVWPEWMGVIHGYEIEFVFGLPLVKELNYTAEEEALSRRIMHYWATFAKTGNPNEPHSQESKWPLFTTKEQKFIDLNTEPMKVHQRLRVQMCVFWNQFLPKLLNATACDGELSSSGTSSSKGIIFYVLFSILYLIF
The target in assay [8] is Cholinesterase (Mus musculus, UniProt Q03311).
Chain of Cholinesterase (Mus musculus, UniProt Q03311) (Q03311 whole entry): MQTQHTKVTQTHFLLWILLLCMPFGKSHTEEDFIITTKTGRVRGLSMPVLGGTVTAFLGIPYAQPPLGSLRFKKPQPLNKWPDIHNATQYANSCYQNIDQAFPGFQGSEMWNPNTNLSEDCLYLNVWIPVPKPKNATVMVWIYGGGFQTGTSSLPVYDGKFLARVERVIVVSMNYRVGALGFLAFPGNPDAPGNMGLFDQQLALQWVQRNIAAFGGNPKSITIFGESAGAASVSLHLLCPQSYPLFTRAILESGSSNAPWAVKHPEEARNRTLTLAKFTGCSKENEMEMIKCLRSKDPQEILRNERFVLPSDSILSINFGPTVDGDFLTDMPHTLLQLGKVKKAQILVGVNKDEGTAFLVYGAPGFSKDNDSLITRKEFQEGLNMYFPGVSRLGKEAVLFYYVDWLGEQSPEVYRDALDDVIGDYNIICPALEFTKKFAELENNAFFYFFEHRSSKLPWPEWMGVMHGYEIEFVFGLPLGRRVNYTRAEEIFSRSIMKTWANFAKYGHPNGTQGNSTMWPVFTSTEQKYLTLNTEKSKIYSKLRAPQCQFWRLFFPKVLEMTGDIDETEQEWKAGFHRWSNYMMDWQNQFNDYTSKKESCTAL
Description: Inhibition of mouse BuChE
The target in assay [9] is T4, Acetylcholinesterase. In words: Inhibition of Torpedo californica AChE assessed as carbamylation. Details: species or system Tetronarce californica.
Assay [10] deals with Acetylcholinesterase (Homo sapiens, UniProt P22303). In words: Binding affinity to human AChE.
Chain of Acetylcholinesterase (Homo sapiens, UniProt P22303) (P22303 whole entry): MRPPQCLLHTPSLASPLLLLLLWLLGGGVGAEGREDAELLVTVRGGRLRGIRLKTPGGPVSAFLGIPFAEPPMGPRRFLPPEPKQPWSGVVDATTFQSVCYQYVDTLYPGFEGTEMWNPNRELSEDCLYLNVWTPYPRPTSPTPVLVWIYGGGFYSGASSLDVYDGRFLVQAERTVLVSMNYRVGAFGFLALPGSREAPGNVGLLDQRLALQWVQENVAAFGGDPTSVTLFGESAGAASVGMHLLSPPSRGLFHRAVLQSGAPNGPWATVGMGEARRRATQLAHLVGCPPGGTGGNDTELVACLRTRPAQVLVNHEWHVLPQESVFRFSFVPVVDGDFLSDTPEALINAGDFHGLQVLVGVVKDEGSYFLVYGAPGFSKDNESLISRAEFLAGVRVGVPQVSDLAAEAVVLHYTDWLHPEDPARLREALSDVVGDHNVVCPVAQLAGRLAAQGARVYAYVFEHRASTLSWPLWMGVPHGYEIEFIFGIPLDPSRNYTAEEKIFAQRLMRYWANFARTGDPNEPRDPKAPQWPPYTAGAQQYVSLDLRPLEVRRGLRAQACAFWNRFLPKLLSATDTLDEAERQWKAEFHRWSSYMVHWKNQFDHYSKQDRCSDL

Chain of Butyrylcholinesterase (Q9JKC1 whole entry): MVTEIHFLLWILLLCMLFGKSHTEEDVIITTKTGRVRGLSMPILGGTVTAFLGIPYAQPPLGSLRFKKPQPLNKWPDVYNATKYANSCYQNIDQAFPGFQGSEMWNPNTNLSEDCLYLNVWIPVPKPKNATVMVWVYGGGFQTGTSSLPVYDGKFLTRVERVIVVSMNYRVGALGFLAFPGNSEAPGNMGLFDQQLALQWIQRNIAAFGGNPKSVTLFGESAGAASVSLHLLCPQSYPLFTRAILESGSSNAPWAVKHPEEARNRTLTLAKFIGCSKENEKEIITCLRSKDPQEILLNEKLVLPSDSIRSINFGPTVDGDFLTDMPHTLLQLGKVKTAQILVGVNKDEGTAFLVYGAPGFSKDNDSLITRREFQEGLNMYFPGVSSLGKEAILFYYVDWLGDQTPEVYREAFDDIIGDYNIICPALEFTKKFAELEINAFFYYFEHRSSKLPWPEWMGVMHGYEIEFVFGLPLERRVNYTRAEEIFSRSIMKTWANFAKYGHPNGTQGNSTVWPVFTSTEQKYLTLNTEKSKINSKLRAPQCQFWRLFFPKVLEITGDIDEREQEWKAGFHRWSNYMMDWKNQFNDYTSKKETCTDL

As usually defined, the IC50 is the concentration that gives 50% inhibition. `NCCCCCCCCNc1c2c(nc3ccccc13)CCCC2` displayed an IC50 against Acetylcholinesterase [1] of 1.5 nM. This counts as single-digit nanomolar. Broadly, the Kd is the constant that tells how readily two partners part at equilibrium. As for `C[N+](C)(C)CCCCCCCCCC[n+]1c(-c2ccccc2)cc(N)c2ccc3ccc(N)cc3c21`, the Kd on Acetylcholinesterase [2] was determined as 79000 nM; on Acetylcholinesterase [3] it was 160000 nM.

`c1ccc2c(c1)NC1CCCCC1=C2NCCCCCCCCNC1CCNC2CCCCC21` (stereo unspecified): the half-inhibitory concentration (IC50) was 8.8 nM on Acetylcholinesterase [1] and 110 nM against Butyrylcholinesterase. `CN(CCCNc1c2c(nc3ccccc13)CCCC2)CCCSc1c2c(nc3ccccc13)CCCC2`: the Ratio Ki in assay [4] came to 2.17. Moreover, the Ki at Cholinesterase [5] came to 4.2 nM. On Cholinesterase [5], `c1ccc2c(NCCCCCCCNc3c4c(nc5ccccc35)CCCC4)c3c(nc2c1)CCCC3` returned a Ki of 2 nM. Molecule `C=CC[N+](C)(C)c1ccc(CCC(=O)CCc2ccc([N+](C)(C)CC=C)cc2)cc1` had a Ki at Acetylcholinesterase [6] of 57.1 nM. As to `CCc1ccccc1NC(=O)Oc1ccc2c(c1)[C@]1(C)CCN(C)O[C@@H]1N2C` [GANSTIGMINE], the IC50 against Acetylcholinesterase [7] is 5120 nM. In the case of `Nc1ccc2c(c1)c(-c1ccccc1)[n+](CCCCCCc1cn(CCNc3c4c(nc5ccccc35)CCCC4)nn1)c1cc(N)ccc21`, the Ki at Cholinesterase [8] came out at 0.46 nM.

As to `CCN(C)C(=O)Oc1cccc([C@H](C)N(C)C)c1` [RIVASTIGMINE], the Ki at Acetylcholinesterase [9] stood at 0.033 M⁻¹ s⁻¹. On to `CC[N+](CC)(CCNC(=O)C(=O)NCC[N+](CC)(CC)Cc1ccccc1Cl)Cc1ccccc1Cl` [AMBENONIUM], for which the Kd at Acetylcholinesterase [2] is 54000 nM; on Acetylcholinesterase [3], 46000 nM. `CCC1=CC2Cc3nc4cc(Cl)ccc4c(N)c3[C@@H](C1)C2` [HUPRINE X] came in with a Ki on Acetylcholinesterase [10] of 0.67 nM. Regarding `Nc1ccc2c(c1)c(-c1ccccc1)[n+](CCCCCCc1cnnn1CCNc1c3c(nc4ccccc14)CCCC3)c1cc(N)ccc21`, the Ki at Cholinesterase [8] came out at 0.72 nM.
